US20210077498A1, “TRANSIENT PROTECTION OF HEMATOPOIETIC STEM AND PROGENITOR CELLS AGAINST IONIZING RADIATION” (G1 Therapeutics, Inc., priority 2015, published 2021)

Experiments:
HS68 cells = assay: G1 arrest (cellular G1 and S-phase) assay, propidium iodide flow cytometry; assay type: cell-based; details: Homo sapiens
Method: For determination of cellular fractions in various stages of the cell cycle following various treatments, HS68 cells (human skin fibroblast cell line (Rb-positive)) were stained with propidium iodide staining solution and run on Dako Cyan Flow Cytometer. The fraction of cells in G0-G1 DNA cell cycle versus the fraction in S-phase DNA cell cycle was determined using FlowJo 7.2.2 analysis.
Formulas I, II, III, and IV were tested for their ability to arrest HS68 cells at the G1 phase of the cell cycle.

[1] = test system: H69 (human small cell lung cancer, Rb-negative) cells; assay: CellTiter-Glo cellular proliferation assay, H69; assay type: cell-based; details: NCI-H69, 96 h, four days
Method: (§1) Cellular proliferation assays were conducted using the following Rb-negative cancer cell lines: H69 (human small cell lung cancer—Rb-negative) cells or A2058 (human metastatic melanoma cells—Rb-negative). These cells were seeded in Costar (Tewksbury, Mass.) 3093 96 well tissue culture treated white walled/clear bottom plates. Cells were treated Formulas I, II, III, or IV as nine point dose response dilution series from 10 uM to 1 nM. Cells were exposed to compounds and then cell viability was determined after either four (H69) or six (A2058) days as indicated using the CellTiter-Glo® luminescent cell viability assay (CTG; Promega, Madison, Wis., United States of America) following the manufacturer's recommendations. Plates were read on BioTek (Winooski, Vt.) Syngergy2 multi-mode plate reader. The Relative Light Units (RLU) were plotted as a result of variable molar concentration and data was analyzed using Graphpad (LaJolla, Californaia) Prism 5 statistical software to determine the EC50 for each compound.

[2] = test system: A2058 (human metastatic melanoma cells, Rb-negative); assay: CellTiter-Glo cellular proliferation assay, A2058; assay type: cell-based; details: A2058, 144 h, six days
Method: as §1

WM2664 or tHS68 = assay: Proliferation by EdU incorporation, RB-intact CDK4/6-dependent cell line; assay type: cell-based; details: 24 hours; WM2664 for PD0332991 (300 nM), tHS68 for Formula I and III (300 nM or 1000 nM)
Method: (§2) SCLC cells were treated with DMSO or the indicated CDK4/6 inhibitor for 24 hours. The effect of CDK4/6 inhibition on proliferation was measured by EdU incorporation. An RB-intact, CDK4/6-dependent cell line (WM2664 or tHS68) and a panel of RB-negative SCLC cell lines (H69, H82, H209, H345, NCI417, or SHP-77) were analyzed for growth inhibition by the various CDK4/6 inhibitors.

[3] = test system: RB-negative SCLC cell lines (H69, H82, H209, H345, NCI417, SHP-77); assay: Proliferation by EdU incorporation, RB-negative SCLC cell lines; assay type: cell-based; details: 24 hours; PD0332991 300 nM, Formula I and III 300 nM or 1000 nM
Method: as §2

[4] = test system: human renal proximal tubule epithelial cells (Rb-positive); assay: Cellular wash-out experiment, renal cells; assay type: cell-based; details: 300 nM
Method: Alternatively, the same experiment was done using normal Renal Proximal Tubule Epithelial Cells (Rb-positive) obtained from American Type Culture Collection (ATCC, Manassas, Va.). Cells were grown in an incubator at 37° C. in a humidified atmosphere of 5% CO2 in Renal Epithelial Cell Basal Media (ATCC) supplemented with Renal Epithelial Cell Growth Kit (ATCC) in 37° C. humidified incubator.
Upon harvesting cells, samples were stained with propidium iodide staining solution and samples run on Dako Cyan Flow Cytometer. The fraction of cells in G0-G1 DNA cell cycle versus the fraction in S-phase DNA cell cycle was determined using FlowJo 7.2.2 analysis.

HSPC [5] = assay: PK half-life and HSPC cell cycle arrest of PD0332991 in humans; assay type: in vivo
Method: When calculated half-life was longer than the duration of the experiment, the half-life was expressed as > the longest incubation time. The calculated half-life is also listed in parentheses.

[6] = test system: HSPC (LKS+) and myeloid progenitor cells (LKS−); details: single dose 150 mg/kg oral gavage, mice; cited from earlier work
[7] = Grade 3/4 neutropenia and leukopenia; cited from earlier work
HSPC [8] = details: in humans; cited from earlier work
[9] = test system: CDK4/6-dependent cell lines; details: cited from earlier work
[10] = test system: CDK4/6 independent Rb-null melanoma cell line A2058; details: cited from earlier work
[11] = test system: mice exposed to peri-lethal and lethal TBI; details: compared to untreated controls; cited from earlier work

Structure (SMILES)	EC50 (HS68 cells)	EC50 [1]	EC50 [2]	effect on proliferation (cells in S phase, EdU) of Rb-positive cell line (WM2664 or tHS68)	effect on growth (cells in S phase, EdU) of Rb-negative SCLC cell lines [3]	return to baseline levels of cell division after wash out [4]	total time for normal bone marrow function to return (HSPC [5])	time to clear the compound (HSPC [5]; 5 half-lives × 27 hour half-life)	duration of cell cycle arrest of HSPC (HSPC [5]; single administration)	duration of sustained reduction in HSPC (LKS+) and myeloid progenitor (LKS−) EdU incorporation [6]	time post oral dosing of return to baseline cell division [6]	patients requiring a dose interruption [7]	patients requiring a dose reduction [7]	PK half-life (HSPC [8])	IR protection [9]	G1 arrest [10]	protection from IR exposure [10]	HSPC protection and survival after TBI [11]
O=C1NCC2(CCCCC2)n2c1cc1cnc(Nc3ccc(N4CCNCC4)cn3)nc12 [Formula II, 2′-((5-(piperazin-1-yl)pyridin-2-yl)amino)-7′,8′-dihydro-6′H-spiro[cyclohexane-1,9′-pyrazino[1′,2′:1,5]pyrrolo[2,3-d]pyrimidin]-6′-one]	0.1 µM	> 3 µM	2.61 µM	–	–	–	–	–	–	–	–	–	–	–	–	–	–	–
CC(C)N1CCN(c2ccc(Nc3ncc4cc5n(c4n3)C3(CCCCC3)CNC5=O)nc2)CC1 [Formula III, 2′-((5-(4-isopropylpiperazin-1-yl)pyridin-2-yl)amino)-7′,8′-dihydro-6′H-spiro[cyclohexane-1,9′-pyrazino[1′,2′:1,5]pyrrolo[2,3-d]pyrimidin]-6′-one]	0.08 µM	2.92 µM	2.69 µM	inhibits	does not affect the growth	–	–	–	–	–	–	–	–	–	–	–	–	–
O=C1NCC2(CCCCC2)n2c1cc1cnc(Nc3ccc(N4CCC(N5CCOCC5)CC4)cn3)nc12 [Formula IV, 2′-((5-(4-morpholinopiperidin-1-yl)pyridin-2-yl)amino)-7′,8′-dihydro-6′H-spiro[cyclohexane-1,9′-pyrazino[1′,2′:1,5]pyrrolo[2,3-d]pyrimidin]-6′-one]	0.025 µM	> 3 µM	> 3 µM	–	–	–	–	–	–	–	–	–	–	–	–	–	–	–
CC(=O)c1c(C)c2cnc(Nc3ccc(N4CCNCC4)cn3)nc2n(C2CCCC2)c1=O [PD0332991, 6-acetyl-8-cyclopentyl-5-methyl-2-(5-piperazin-1-yl-pyridin-2-ylammino)-8H-pyrido-[2,3-d]-pyrimidin-7-one]	–	–	–	inhibits	does not affect the growth	took significantly longer to return to baseline levels of cell division	≥ 7 days	6 days	approximately one week	greater than 36 hours	48 h	71%	35%	27 h	exhibited IR protective characteristics	did not G1 arrest	failed to protect	protect HSPCs and improve survival of mice
